What was measured:
Type in all cases: in vivo
[1] = tested on: blackgrass (Alopecurus myosuroides); test: Test A1 preemergence, blackgrass
How it was run: (§1)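 Seeds were first planted into a blend of loam soil and sand and given a preemergence directed soil spray. In parallel, pots of the same soil were sown for postemergence application once plants reached 2 to 10 cm and the one- to two-leaf stage. Both used surfactant-containing non-phytotoxic solvent formulations.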

[2] = tested on: goosegrass (Eleusine indica); test: Test A1 postemergence, goosegrass; conditions: for Goosegrass plant response rating: postemergence; for Plant response rating, Goosegrass: Postemergence
How it was run: (§2)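 Both timings started from seed in a loam-sand blend. Preemergence pots got a directed soil application immediately; postemergence pots were sprayed when seedlings had one or two leaves and stood 2–10 cm. Each compound was prepared in a non-phytotoxic solvent plus surfactant.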

[3] = tested on: Pigweed, Palmer (palmer amaranth, palmer pigweed, Amaranthus palmeri); test: Test A1 postemergence, Pigweed, Palmer; conditions: for Pigweed, Palmer plant response rating: postemergence; for Plant response rating, Pigweed, Palmer: Postemergence
How it was run: as §1

soybean (Glycine max) = test: Test A1 postemergence, soybean; conditions: for Soybean plant response rating: postemergence; for Plant response rating, Soybean: Postemergence
How it was run: as §2

[4] = 31 g ai/ha, 0 to 100 scale (0 no effect, 100 complete control)
[5] = 125 g ai/ha, 0 to 100 scale, 0 no effect, 100 complete control
[6] = 125 g ai/ha, 0 to 100 scale (0 no effect, 100 complete control), 10 days
[7] = 31 g ai/ha, 0 to 100 scale (0 no effect, 100 complete control), 10 days

Row | SMILES | Plant response rating, Blackgrass [1, 4] | Plant response rating, Blackgrass [1, 5] | Goosegrass plant response rating [2, 4] | Plant response rating, Goosegrass ([2]; 125 g ai/ha, 0 to 100 scale) | Pigweed, Palmer plant response rating [3, 4] | Plant response rating, Pigweed, Palmer ([3]; 125 g ai/ha, 0 to 100 scale) | Soybean plant response rating (soybean (Glycine max); [4]) | Plant response rating, Soybean (soybean (Glycine max); 125 g ai/ha, 0 to 100 scale) | Plant response rating, Goosegrass [2, 6] | Plant response rating, Pigweed, Palmer [3, 6] | Plant response rating, Soybean (soybean (Glycine max); [6]) | Plant response rating, Blackgrass ([1]; 500 g ai/ha, 0 to 100 scale (0 no effect, 100 complete control)) | Plant response rating, Goosegrass ([2]; 500 g ai/ha, 0 to 100 scale) | Plant response rating, Pigweed, Palmer ([3]; 500 g ai/ha, 0 to 100 scale) | Plant response rating, Soybean (soybean (Glycine max); 500 g ai/ha, 0 to 100 scale) | Plant response rating, Goosegrass [2, 7] | Plant response rating, Pigweed, Palmer [3, 7] | Plant response rating, Soybean (soybean (Glycine max); [7])
1 | CCC1CC(c2cc(NS(=O)(=O)C(F)(F)F)c(C)cc2C)=NO1 (stereo not shown) [Compound 375] | 20 | 50 | 50 | 90 | 0 | 20 | 30 | 60 | – | – | – | – | – | – | – | – | – | –
2 | COC1CCC2(CC1)CCN(c1cc(NS(=O)(=O)C(F)(F)F)c(C)cc1C)C2=O (stereo not shown) [Compound 398] | 60 | 90 | 50 | – | 50 | – | 30 | – | 90 | 80 | 60 | – | – | – | – | – | – | –
3 | Cc1cc(C)c(N2Cc3cccc(Br)c3C2=O)cc1NS(=O)(=O)Cl [Compound 415] | – | – | 70 | – | 0 | – | 10 | – | 90 | 20 | 30 | – | – | – | – | – | – | –
4 | C#CCN(C)C(=O)c1cc(NS(=O)(=O)C(F)(F)F)c(C)c(C)c1C [Compound 368] | 10 | 40 | 30 | 90 | 20 | 40 | 70 | 90 | – | – | – | – | – | – | – | – | – | –
5 | Cc1ccc(C2=NOC3CCCC23)cc1NS(=O)(=O)C(F)(F)F (stereo not shown) [Compound 377] | – | – | 0 | 0 | 0 | 0 | 0 | 30 | – | – | – | – | – | – | – | – | – | –
6 | Cc1c(C(=O)N2CCC(C)CC2)cc(N(COC(=O)C(C)(C)C)S(=O)(=O)C(F)(F)F)c(C)c1C [Compound 369] | 0 | 0 | 0 | 0 | 0 | 40 | 20 | 90 | – | – | – | – | – | – | – | – | – | –
7 | Cc1c(C2=NOC3(CCCC3)C2)cc(N(COC(=O)C(C)(C)C)S(=O)(=O)C(F)(F)F)c(C)c1C [Compound 382] | – | – | 0 | – | 0 | – | 40 | – | 0 | 20 | 50 | – | – | – | – | – | – | –
8 | Cc1cc(C)c(N2CCC3(CCC(C)CC3)C2=O)cc1NS(=O)(=O)C(F)(F)F (stereo not shown) [Compound 402] | 70 | 80 | 20 | – | 20 | – | 60 | – | 70 | 70 | 80 | – | – | – | – | – | – | –
9 | Cc1cc(Cl)c(NS(=O)(=O)C(F)(F)F)cc1N1CCC2(CCCCC2)C1=O [Compound 393] | 70 | 90 | 0 | – | 0 | – | 50 | – | 70 | 80 | 60 | – | – | – | – | – | – | –
10 | CCOC(=O)N(c1cc(C2=NOC3CCCC23)c(CC)cc1C)S(=O)(=O)C(F)(F)F (stereo not shown) [Compound 379] | – | – | 10 | 60 | 0 | 10 | 0 | 20 | – | – | – | – | – | – | – | – | – | –
11 | Cc1cc(Cl)c(NS(=O)(=O)C(F)(F)F)cc1N1CC2(CCCCC2)OC1=O [Compound 394] | 0 | 70 | 0 | – | 50 | – | 10 | – | 30 | 50 | 60 | – | – | – | – | – | – | –
12 | COC1CCN(C(=O)c2cc(NS(=O)(=O)C(F)(F)F)c(C)c(C)c2C)CC1 [Compound 367] | 0 | 0 | 10 | 70 | 40 | 40 | 50 | 80 | – | – | – | – | – | – | – | – | – | –
13 | Cc1cc(C)c(N(COC(=O)C(C)(C)C)S(=O)(=O)C(F)(F)F)cc1N1CCC2(CCC(C)CC2)C1=O (stereo not shown) [Compound 401] | 0 | 0 | 0 | – | 0 | – | 60 | – | 90 | 30 | 70 | – | – | – | – | – | – | –
14 | Cc1cc(C)c(N(COC(=O)C(C)(C)C)S(=O)(=O)C(F)(F)F)cc1N1CCC2(CCC(F)(F)CC2)C1=O [Compound 397] | – | 40 | – | – | – | – | – | – | 90 | 80 | 50 | 90 | 90 | 100 | 60 | – | – | –
15 | Cc1cc(C)c(C2=NOC3OCCCC23)cc1NS(=O)(=O)C(F)(F)F (stereo not shown) [Compound 372] | 0 | 40 | 0 | 80 | 30 | 40 | 30 | 60 | – | – | – | – | – | – | – | – | – | –
16 | Cc1c(NS(=O)(=O)C(F)(F)F)cc(C(=O)N2CCSCC2)c(C)c1C [Compound 283] | – | – | – | 30 | – | 50 | – | 60 | – | – | – | – | – | – | – | 10 | 10 | 40
17 | Cc1cc(C)c(N2CCC3(CCC(C(F)(F)F)CC3)C2=O)cc1NS(=O)(=O)C(F)(F)F (stereo not shown) [Compound 400] | 20 | 80 | 10 | – | 20 | – | 50 | – | 80 | 70 | 60 | – | – | – | – | – | – | –
18 | COc1cccc2c1C(=O)N(c1cc(N(COC(=O)C(C)(C)C)S(=O)(=O)Cl)c(C)cc1C)C2 [Compound 413] | 20 | 20 | 0 | – | 20 | – | 80 | – | 0 | 30 | 80 | – | – | – | – | – | – | –
19 | Cc1c(C(=O)N2C[C@@H](C)O[C@H](C)C2)cc(N(COC(=O)C(C)(C)C)S(=O)(=O)C(F)(F)F)c(C)c1C (relative stereo) [Compound 373] | 30 | 30 | 0 | 70 | 0 | 10 | 50 | 70 | – | – | – | – | – | – | – | – | – | –
20 | Cc1cc(C)c(N(COC(=O)C(C)(C)C)S(=O)(=O)C(F)(F)F)cc1N1CCC2(CCC(C(F)(F)F)CC2)C1=O (stereo not shown) [Compound 403] | 0 | 0 | 0 | – | 0 | – | 50 | – | 50 | 30 | 60 | – | – | – | – | – | – | –
21 | Cc1c(C(=O)N2CCSCC2)cc(N(COC(=O)C(C)(C)C)S(=O)(=O)C(F)(F)F)c(C)c1C [Compound 285] | – | – | – | 50 | – | 20 | – | 60 | – | – | – | – | – | – | – | 0 | 0 | 30
22 | CCOC(=O)N(c1cc(C(=O)N2CCSCC2)c(C)c(C)c1C)S(=O)(=O)C(F)(F)F [Compound 286] | – | – | – | 40 | – | 30 | – | 60 | – | – | – | – | – | – | – | 0 | 0 | 50
23 | CCOC(=O)N(c1cc(C(=O)N2C[C@@H](C)O[C@H](C)C2)c(C)c(C)c1C)S(=O)(=O)C(F)(F)F (relative stereo) [Compound 374] | 0 | 0 | 0 | 90 | 10 | 30 | 50 | 90 | – | – | – | – | – | – | – | – | – | –
24 | Cc1cc(C)c(N(COC(=O)C(C)(C)C)S(=O)(=O)C(F)(F)F)cc1C1=NOC(C(C)C)C1 (stereo not shown) [Compound 383] | – | – | 0 | – | 0 | – | 30 | – | 20 | 10 | 50 | – | – | – | – | – | – | –
25 | CCc1cc(C)c(N(COC(=O)C(C)(C)C)S(=O)(=O)C(F)(F)F)cc1C1=NOC2CCCC12 (stereo not shown) [Compound 378] | – | – | 0 | 30 | 0 | 10 | 0 | 20 | – | – | – | – | – | – | – | – | – | –
26 | C#CCN(C)C(=O)c1cc(N(COC(=O)C(C)(C)C)S(=O)(=O)C(F)(F)F)c(C)c(C)c1C [Compound 371] | 0 | 20 | 0 | 80 | 0 | 30 | 60 | 90 | – | – | – | – | – | – | – | – | – | –
27 | Cc1cc(C)c(C2=NOC(C(C)C)C2)cc1NS(=O)(=O)C(F)(F)F (stereo not shown) [Compound 381] | – | – | 0 | – | 0 | – | 50 | – | 50 | 10 | 60 | – | – | – | – | – | – | –
